In patent publication US11597708B2, “Inhibitors of heat shock factors and uses thereof” (HSF Pharmaceuticals SA, priority 2016, dated 2023):

What was measured:
LexA-hHSF = molecular target: T1, LexA-hHSF (Homo sapiens, UniProt Q00613); assay: Z74 cell-based reporter assay: heat-induced FLuc expression controlled by chimeric LexA-HSF1; details: IHSF 001 tested at 25 μM
T1 construct: expressed in transfected cells; the other entry of the earlier key: lexA (P0A7C2, LexA repressor)
T1 sequence (Q00613 with tags, fused parts or gaps): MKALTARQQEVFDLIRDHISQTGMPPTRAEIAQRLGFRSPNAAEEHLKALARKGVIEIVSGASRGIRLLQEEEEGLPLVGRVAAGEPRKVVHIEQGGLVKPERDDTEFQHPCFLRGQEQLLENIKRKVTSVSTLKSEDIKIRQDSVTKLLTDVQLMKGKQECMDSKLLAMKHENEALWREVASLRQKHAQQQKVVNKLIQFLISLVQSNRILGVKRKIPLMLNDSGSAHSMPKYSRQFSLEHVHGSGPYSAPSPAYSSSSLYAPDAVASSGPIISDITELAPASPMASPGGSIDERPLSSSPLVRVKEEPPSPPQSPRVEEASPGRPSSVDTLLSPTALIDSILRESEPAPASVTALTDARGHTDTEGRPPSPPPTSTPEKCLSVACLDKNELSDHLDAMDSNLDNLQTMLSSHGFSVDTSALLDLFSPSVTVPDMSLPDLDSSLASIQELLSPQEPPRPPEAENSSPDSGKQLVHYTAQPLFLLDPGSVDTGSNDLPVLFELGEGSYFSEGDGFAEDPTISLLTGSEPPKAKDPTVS
Text: For screening this sublibrary, a cell-based assay was developed. We opted for a cell-based assay, because a cell-free assay would have had to be a DNA-binding assay. Such an assay would have limited discovery to molecules capable of interfering with the DNA-binding function of HSF1. This was thought to be too narrow a focus, considering that three of the four cavities identified in the HSF1 DNA-binding domain are not near the DNA interaction region. A straightforward cell-based assay, in which a HSF1-responsive gene would be assayed, was considered likely to be over-inclusive. Compounds would be scored as hits that inhibit any factor that is involved in HSF1 activation or prevents HSF1 deactivation. These factors include protein kinases, activators of protein phosphatases, factors affecting HSF1 mRNA stability, HSP90, HDAC6, etc. For developing a more discriminating cell-based assay, advantage was taken of the modular nature of HSF1. […] The cell-based assay developed (see below for the particular format employed) compared transactivation by wild type HSF1 and chimeric HSF1 in cells exposed to an HSF1-activating heat treatment in the presence of a sublibrary compound. A compound was scored as a hit, if it inhibited the activity of wild type HSF1 but not of chimeric HSF1.
The cell-based assay made use of HeLa-derived cell line Z74 that stably contains a gene for chimeric transcription factor LexA-(human) HSF1 under the control of a CMV early promoter, a firefly luciferase (flue) gene driven by a promoter responsive to the latter chimeric transcription factor and a Renilla luciferase (rluc) gene functionally linked to an hsp70b promoter and therefore controlled by endogenous HSF1 (FIG. 1A). As is shown in FIGS. 1B & C, the reporter genes responded similarly to heat dose, i.e., their activation depended on both duration of heat exposure and temperature of the exposure. […] Depletion of HSF1 (and LexA-HSF1) by siRNA supported the notion that this stress regulation is mediated by HSF1 (and LexA-HSF1). Therefore, the Z74 line was well suited for use in a screening assay aimed at discovering molecules that inhibit heat-induced HSF1 activity through interaction with the transcription factor's DNA-binding domain.
The compounds of the afore-mentioned biased sublibrary were screened in cell line Z74 at 12.5 and 25 μM concentrations. Typically, Z74 cultures in 96-well plates were exposed to compound or vehicle for 2 h, heat-treated at 43.0° C. for 30 min, and incubated further for 6 h at 37° C. to allow for accumulation of the luciferases. RLuc and FLuc activities were determined, typically using the Dual-Glo® Luciferase Assay System (Promega Corp., Madison, Wis.), and reading luciferase light counts in a Wallac Microbeta Trilux-1450 Luminometer (PerkinElmer, Waltham, Mass.). IHSF 001 was one of two library compounds that inhibited RLuc expression but not FLuc expression in heat-treated Z74 cells (Table 1; FIG. 2A). Therefore, IHSF 001 is an inhibitor of HSF1 function that specifically acts through the HSF1 DNA-binding domain. […] A corroborating experiment utilized a cell line containing an hsp70b promoter-driven fluc gene. […] IHSF 001 is (E)-ethyl 4-oxo-4-(thiazol-2-ylamino)but-2-enoate. The compound can be obtained from commercial sources (e.g., AKE-PB-90340538, Akos).

HSF1-ATF1 interaction = molecular target: T2, HSF1-ATF1 interaction (Homo sapiens, UniProt Q00613); assay: Anti-FLAG immunoprecipitation of FLAG-tagged HSF1 and WB (HSF1-ATF1 interaction); format: cell-based; details: HeLa-derived line expressing FLAG-tagged HSF1, heat-treated 30 min at 43° C.
T2 construct: expressed in transfected cells; host or cells: HeLa-derived cell line stably expressing HSF1-FLAG
Text: Recruitment of HSF1 to target promoters in response to a stress is mediated by ATF1/CREB. Takii, R. et al. (2015) Mol. Cell. Biol. 35: 11-25. ATF1/CREB regulates the stress-induced HSF1 transcription complex that includes BRG1 chromatin-remodeling complex and p300/CBP. The former complex promotes an active chromatin state in the promoters, whereas p300/CBP accelerates the shutdown of HSF1 DNA-binding activity as well as stabilizes HSF1 against proteasomal degradation during recovery from stress. To assess the effects of the IHSF on the assembly of the transcription complex, use was made of a HeLa-derived cell line that stably expresses a C-terminally FLAG-tagged HSF1. Cultures were heat-treated for 30 min at 43° C. in the presence or absence of IHSF 115, extracts were prepared, and tagged HSF1 was immunoprecipitated using an anti-FLAG antibody.

T2 sequence (Q00613 whole entry): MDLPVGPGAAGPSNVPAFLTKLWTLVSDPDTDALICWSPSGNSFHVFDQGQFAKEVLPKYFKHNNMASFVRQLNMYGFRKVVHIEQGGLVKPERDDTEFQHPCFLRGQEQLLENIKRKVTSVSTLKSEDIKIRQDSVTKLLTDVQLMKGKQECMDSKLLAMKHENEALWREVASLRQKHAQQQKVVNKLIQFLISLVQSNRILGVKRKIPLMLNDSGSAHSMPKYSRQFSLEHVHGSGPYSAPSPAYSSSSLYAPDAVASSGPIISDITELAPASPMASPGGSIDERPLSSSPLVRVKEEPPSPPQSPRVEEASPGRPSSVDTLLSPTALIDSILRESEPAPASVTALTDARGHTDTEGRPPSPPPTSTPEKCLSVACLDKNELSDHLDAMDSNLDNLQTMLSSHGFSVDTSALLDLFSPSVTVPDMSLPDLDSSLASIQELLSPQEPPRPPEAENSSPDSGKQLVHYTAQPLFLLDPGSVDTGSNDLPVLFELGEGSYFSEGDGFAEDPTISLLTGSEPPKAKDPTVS

Row | SMILES | inhibition at 25 µM (LexA-hHSF; Experiment No. 1) [%] | inhibition at 25 µM (LexA-hHSF; Experiment No. 2) [%] | inhibition at 25 µM (LexA-hHSF; Experiment No. 3) [%] | inhibition at 25 µM (LexA-hHSF; Experiment No. 4) [%] | inhibition at 25 µM (LexA-hHSF; Experiment No. 5) [%] | inhibition at 25 µM (LexA-hHSF; Experiment No. 6) [%] | inhibition at 25 µM (LexA-hHSF; Experiment No. 7) [%] | inhibition at 25 µM (LexA-hHSF; Experiment No. 8) [%] | inhibition at 25 µM (LexA-hHSF; Experiment No. 9) [%] | HSF1-ATF1 interaction (co-immunoprecipitation, WB) (HSF1-ATF1 interaction)
1 | CCOC(=O)/C=C/C(=O)Nc1nccs1 [IHSF 001, (E)-ethyl 4-oxo-4-(thiazol-2-ylamino)but-2-enoate] | 3 | 0 | 0 | 0 | 0 | 0 | 0 | 0 | 15 | 
2 | CN(C(=O)/C=C/C1=NCCCO1)c1ncc(-c2cccnc2)s1 [IHSF 115, (E)-3-(5,6-Dihydro-4H-[1,3]oxazin-2-yl)-N-methyl-N-(5-pyridin-3-yl-thiazol-2-yl)-acrylamide] |  |  |  |  |  |  |  |  |  | dramatically reduced
